Data as given in patent US8920854B2, “Oral care compositions for treating xerostomia” (Georgia Regents Research Institute, priority 2009, dated 2014).

How the values were obtained:
Type in all cases: in vivo, mouse
[1] = tested on: superoxide dismutase 1 (SOD1); assay: Antioxidant capacity by immunohistochemistry in NOD mice: SOD1; conditions: EGCG-fed NOD mice, 22 weeks, n=12, P<0.0001
Method: Salivary gland and pancreas samples were obtained at 22 weeks of age from NOD mice fed water or EGCG-water (12 animals per group), and from control BALB/c mice. The antioxidant capacity represented by protein levels of peroxiredoxin 6, superoxide dismutase 1 (SOD1), catalase, and glutathione peroxidase was measured by immunohistochemstry.

Ki-67 = Ki-67 immunostaining of submandibular glands, NOD/Lt mice; conditions: 0.2% EGCG in drinking water, 8, 16, 22 weeks
From the text: (§1) Submandibular salivary gland samples from BALB/c (left), water-fed (middle), and EGCG-fed (right) NOD/Lt mice were stained with ApopTag Plus Peroxidase in situ apoptosis detection method according to the manufacturer's instructions. Arrows point to the nuclear staining of TUNEL-positive cells. […] Submandibular salivary gland samples from BALB/c (left), water-fed (middle), and EGCG-fed (right) NOD/Lt mice were immunostained with the anti-PCNA antibody. Arrows point to the nuclear staining of PCNA-positive cells. […] Submandibular salivary gland samples from BALB/c (left), water-fed (middle), and EGCG-fed (right) NOD/Lt mice were immunostained with the anti-Ki-67 antibody. Arrows point to the nuclear staining of Ki-67-positive cells. […] Solid bars represent the average percentage of TUNEL-positive cells in the submandibular gland of water-fed NOD/Lt mice. Open bars represent the average of TUNEL-positive cells in the submandibular gland of EGCG-fed NOD/Lt mice. […] Solid bars represent the average percentage of PCNA-positive cells in the submandibular gland of water-fed NOD/Lt mice. Open bars represent the average of PCNA-positive cells in the submandibular gland of EGCG-fed NOD/Lt mice. […] Solid bars represent the average of Ki-67-positive cells in the submandibular gland of water-fed NOD/Lt mice. Open bars represent the average of Ki-67-positive cells in the submandibular gland of […] […]

PCNA = PCNA immunostaining of submandibular glands, NOD/Lt mice; conditions: 0.2% EGCG in drinking water, between 16 and 22 weeks of age
From the text: as §1

NOD/Lt mice = assay: Submandibular gland lymphocytic infiltration in EGCG/water-fed NOD/Lt mice; conditions: 0.2% EGCG in drinking water
Method: Animals were fed either with EGCG/water or water only. At the age of 8 (n=36), 16 (n=36) and 22 weeks (n=27), submandibular glands were dissected, processed and stained by H&E. Three randomly selected areas of lymphocytic infiltrates were measured in each gland as relative density units generated by BIOQUANT NOVA PRIME 6.75 software, representing area sizes. Error bars are standard error of means (SEM). […] An animal study was conducted to examine whether EGCG fed prior to development of exocrinopathy is protective against salivary gland lymphocyte infiltration and gland abnormalities. Since EGCG is the most abundant green tea polyphenol, and widely used in scientific studies, this compound was selected for this feasibility study using 0.2% EGCG in drinking water (Gillespie K, et al. 2008).

catalase = assay: Antioxidant capacity by immunohistochemistry in NOD mice: catalase; conditions: submandibular salivary glands, EGCG-fed NOD/Lt mice, 22 weeks; n=12, p<0.04
From the text: (§2) FIGS. 8A-8C, 8D-8F show representative immunostaining of peroxiredoxin 6 (FIGS. 8A-C) and catalase (FIGS. 8D-F) expression in glandular epithelium of 22 week old water-fed (FIGS. 8A, 8D) and EGCG-treated NOD mice (FIGS. 8B, 8E) (magnification 200×). FIGS. 8C and 8F show statistical analysis of peroxiredoxin 6 and Catalase-positive cells. Black arrows point to ductal cells; open arrow to acinar cells (FIG. 8B). Salivary gland and pancreas samples were obtained at 22 weeks of age from NOD mice fed water or EGCG-water (12 animals per group), and from control BALB/c mice. The antioxidant capacity represented by protein levels of peroxiredoxin 6, superoxide dismutase 1 (SOD1), catalase, and glutathione peroxidase was measured by immunohistochemstry.

[2] = tested on: TUNEL-positive cells in submandibular gland; assay: Apoptotic activity in salivary glands by TUNEL staining, NOD/Lt mice; conditions: 0.2% EGCG in drinking water, 8, 16, 22 weeks
From the text: Submandibular salivary gland samples from BALB/c (left), water-fed (middle), and EGCG-fed (right) NOD/Lt mice were stained with ApopTag Plus Peroxidase in situ apoptosis detection method according to the manufacturer's instructions. Arrows point to the nuclear staining of TUNEL-positive cells. […] Submandibular salivary gland samples from BALB/c (left), water-fed (middle), and EGCG-fed (right) NOD/Lt mice were immunostained with the anti-PCNA antibody. Arrows point to the nuclear staining of PCNA-positive cells. […] Submandibular salivary gland samples from BALB/c (left), water-fed (middle), and EGCG-fed (right) NOD/Lt mice were immunostained with the anti-Ki-67 antibody. Arrows point to the nuclear staining of Ki-67-positive cells. […] Solid bars represent the average percentage of TUNEL-positive cells in the submandibular gland of water-fed NOD/Lt mice. Open bars represent the average of TUNEL-positive cells in the submandibular gland of EGCG-fed NOD/Lt mice. […] Solid bars represent the average percentage of PCNA-positive cells in the submandibular gland of water-fed NOD/Lt mice. […] The apoptotic activity was determined by TUNEL staining of the salivary glands (FIG. 5A) and quantification (FIG. 6A). […] Although it was not determined which cells were undergoing apoptosis, there was no significant apoptotic activity in the majority of secretory cells (Gillespie K, et al. 2008).

peroxiredoxin 6 = assay: Antioxidant capacity by immunohistochemistry in NOD mice: peroxiredoxin 6; conditions: 22 weeks
From the text: as §2

SMILES: O=C(O[C@@H]1Cc2c(O)cc(O)cc2O[C@@H]1c1cc(O)c(O)c(O)c1)c1cc(O)c(O)c(O)c1 [EGCG, epigallocatechin-3-gallate]
- SOD1 level in the pancreas [1]: normalized to BALB/c levels
- Ki-67 levels in submandibular glands (Ki-67): affected by EGCG in the same pattern
- PCNA-positive cells in submandibular glands (PCNA): considerably reduces the rise of PCNA
- average area of lymphocytic infiltration vs water-fed group (NOD/Lt mice; 16 weeks of age, p=0.026): significantly lower
- average area of lymphocytic infiltration vs water-fed group (NOD/Lt mice; 22 weeks of age): no significant difference
- expression of catalase vs water only fed mice (catalase): significantly higher
- apoptosis in the glandular epithelium (TUNEL) [2]: did not affect
- apoptosis in the infiltrates (TUNEL) [2]: initially raising levels, but blocking the considerable increase seen at 22 weeks in water-fed mice
- peroxiredoxin 6 level in the pancreas (peroxiredoxin 6; pancreas, EGCG-fed NOD mice, n=12, P<0.0001): normalized to BALB/c levels
- expression of peroxiredoxin 6 vs water only fed mice (peroxiredoxin 6; submandibular salivary glands, EGCG-fed NOD/Lt mice, n=12, p<0.04): significantly higher
